Data on 29 molecules can be found in ChEMBL document CHEMBL3880411, “Multikinase inhibitors for use in the treatment of cancer” (2009).

Test [1] concerns the target Dual specificity mitogen-activated protein kinase kinase 1 (Homo sapiens, UniProt Q02750). As to the kind of experiment: Inhibition of MEK1 (unknown origin) using ERK2 as substrate after 40 mins by ELISA. (In general: In an ELISA, binding on a coated surface is turned into a signal by an enzyme label.)
Test [2] addresses Nuclear factor NF-kappa-B complex (Homo sapiens) (UniProt Q00653+P19838+Q04206). Nature of the test: Inhibition of NFkappaB (unknown origin). The format is protein-complex assay.

The source made the active and inactive calls. The rule behind the calls is not given here.

Chain of Dual specificity mitogen-activated protein kinase kinase 1 (Q02750 whole entry): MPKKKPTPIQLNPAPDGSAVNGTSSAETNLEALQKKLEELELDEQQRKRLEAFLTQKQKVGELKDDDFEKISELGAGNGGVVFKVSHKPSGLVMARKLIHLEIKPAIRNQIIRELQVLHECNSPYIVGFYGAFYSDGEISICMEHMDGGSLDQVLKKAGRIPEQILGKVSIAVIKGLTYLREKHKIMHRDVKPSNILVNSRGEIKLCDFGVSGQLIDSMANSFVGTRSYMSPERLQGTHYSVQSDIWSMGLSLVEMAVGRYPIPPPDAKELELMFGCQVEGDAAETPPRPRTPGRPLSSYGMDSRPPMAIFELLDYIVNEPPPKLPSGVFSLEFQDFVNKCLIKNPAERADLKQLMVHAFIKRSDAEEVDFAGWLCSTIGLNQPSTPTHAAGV
Chain of Nuclear factor NF-kappa-B complex (Homo sapiens) (P19838 whole entry, looked up): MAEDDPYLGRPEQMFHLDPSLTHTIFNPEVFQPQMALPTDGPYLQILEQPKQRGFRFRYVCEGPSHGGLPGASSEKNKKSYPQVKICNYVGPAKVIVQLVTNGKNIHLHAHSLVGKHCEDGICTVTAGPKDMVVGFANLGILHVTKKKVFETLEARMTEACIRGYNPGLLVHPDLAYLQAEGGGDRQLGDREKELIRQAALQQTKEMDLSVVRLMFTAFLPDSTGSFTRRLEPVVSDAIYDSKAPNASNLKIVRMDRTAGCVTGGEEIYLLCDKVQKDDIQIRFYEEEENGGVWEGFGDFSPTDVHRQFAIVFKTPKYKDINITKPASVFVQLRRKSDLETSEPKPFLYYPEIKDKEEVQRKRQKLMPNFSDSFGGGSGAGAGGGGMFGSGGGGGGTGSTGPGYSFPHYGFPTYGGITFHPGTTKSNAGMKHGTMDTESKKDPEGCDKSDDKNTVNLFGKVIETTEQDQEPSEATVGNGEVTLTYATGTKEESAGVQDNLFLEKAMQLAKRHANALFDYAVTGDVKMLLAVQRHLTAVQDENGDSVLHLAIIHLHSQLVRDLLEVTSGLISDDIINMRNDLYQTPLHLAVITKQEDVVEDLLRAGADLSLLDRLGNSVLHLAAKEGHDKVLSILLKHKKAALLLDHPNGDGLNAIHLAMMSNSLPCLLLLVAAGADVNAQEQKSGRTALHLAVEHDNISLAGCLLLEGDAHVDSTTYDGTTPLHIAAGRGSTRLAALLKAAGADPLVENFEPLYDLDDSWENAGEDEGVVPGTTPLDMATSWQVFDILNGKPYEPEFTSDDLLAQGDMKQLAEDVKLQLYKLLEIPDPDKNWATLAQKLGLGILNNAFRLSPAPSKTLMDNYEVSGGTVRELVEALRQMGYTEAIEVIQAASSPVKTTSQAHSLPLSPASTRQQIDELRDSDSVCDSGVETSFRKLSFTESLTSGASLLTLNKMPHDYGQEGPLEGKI
Chain of Nuclear factor NF-kappa-B complex (Homo sapiens) (Q00653 whole entry, looked up): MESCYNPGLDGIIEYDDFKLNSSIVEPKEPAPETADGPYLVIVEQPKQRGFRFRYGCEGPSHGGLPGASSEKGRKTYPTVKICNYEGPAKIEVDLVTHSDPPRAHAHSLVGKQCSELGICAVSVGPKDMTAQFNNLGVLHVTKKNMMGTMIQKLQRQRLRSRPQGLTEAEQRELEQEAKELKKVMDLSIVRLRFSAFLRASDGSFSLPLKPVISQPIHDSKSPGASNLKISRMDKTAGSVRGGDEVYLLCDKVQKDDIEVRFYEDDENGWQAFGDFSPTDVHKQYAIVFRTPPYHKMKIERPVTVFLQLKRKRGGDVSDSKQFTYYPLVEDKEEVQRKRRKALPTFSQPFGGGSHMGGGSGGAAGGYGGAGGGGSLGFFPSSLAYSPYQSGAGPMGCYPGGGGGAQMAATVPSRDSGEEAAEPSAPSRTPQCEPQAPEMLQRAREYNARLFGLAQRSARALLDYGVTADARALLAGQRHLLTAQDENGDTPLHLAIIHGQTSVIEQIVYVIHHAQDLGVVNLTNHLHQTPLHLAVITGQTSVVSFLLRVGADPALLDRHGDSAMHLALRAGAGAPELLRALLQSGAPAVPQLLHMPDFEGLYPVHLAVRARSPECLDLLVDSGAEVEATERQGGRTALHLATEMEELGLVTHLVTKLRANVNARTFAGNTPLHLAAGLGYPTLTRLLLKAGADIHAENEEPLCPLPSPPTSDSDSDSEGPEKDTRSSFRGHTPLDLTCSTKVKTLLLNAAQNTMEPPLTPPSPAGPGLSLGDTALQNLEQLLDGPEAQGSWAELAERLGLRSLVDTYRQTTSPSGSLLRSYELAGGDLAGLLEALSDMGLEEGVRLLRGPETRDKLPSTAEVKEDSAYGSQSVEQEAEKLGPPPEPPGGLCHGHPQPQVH
Chain of Nuclear factor NF-kappa-B complex (Homo sapiens) (Q04206 whole entry, looked up): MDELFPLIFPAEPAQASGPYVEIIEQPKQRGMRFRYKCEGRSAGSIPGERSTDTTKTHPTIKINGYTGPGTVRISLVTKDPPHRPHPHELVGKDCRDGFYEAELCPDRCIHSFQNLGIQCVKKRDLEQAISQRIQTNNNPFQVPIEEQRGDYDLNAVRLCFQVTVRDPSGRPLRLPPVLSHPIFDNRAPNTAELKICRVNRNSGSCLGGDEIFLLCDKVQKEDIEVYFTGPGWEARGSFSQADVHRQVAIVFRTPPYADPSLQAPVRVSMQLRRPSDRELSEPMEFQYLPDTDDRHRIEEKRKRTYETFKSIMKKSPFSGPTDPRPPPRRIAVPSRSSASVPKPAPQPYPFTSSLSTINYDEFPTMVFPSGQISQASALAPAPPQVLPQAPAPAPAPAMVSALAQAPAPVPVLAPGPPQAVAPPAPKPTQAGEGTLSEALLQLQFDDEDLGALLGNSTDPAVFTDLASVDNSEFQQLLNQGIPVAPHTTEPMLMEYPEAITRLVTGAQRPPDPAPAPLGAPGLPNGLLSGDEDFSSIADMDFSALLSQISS

Regarding `C[C@@H]1/C=C\C(=O)[C@@H](O)[C@@H](O)C/C=C/c2cc(N3CCNC3=O)cc(O)c2C(=O)O[C@H]1C`, it took 484 nM to reach half-maximal inhibition in test [1] (IC50). Besides, the inhibition result in test [2] is “Active”.

`CCNc1cc(O)c2c(c1)/C=C/C[C@H](O)[C@@H](O)C(=O)/C=C/[C@@H](C)[C@H](C)OC2=O`: the inhibition entry in test [2] is “Active”.

Molecule `C[C@@H]1/C=C\C(=O)[C@@H](O)[C@@H](O)C/C=C/c2cc(NCCNCC(O)CO)cc(O)c2C(=O)O[C@H]1C` (some centres undefined) displayed an IC50 in test [1] of 658 nM. Also, the inhibition result in test [2] was “Active”.

On to `C[C@@H]1/C=C\C(=O)[C@@H](O)[C@@H](O)C/C=C/c2cc(NCCN3CCN(C)CC3)cc(O)c2C(=O)O[C@H]1C`, for which the IC50 in test [1] lay in the range of 471 to 946 nM. Further, the inhibition entry in test [2] is “Active”.

Regarding `C[C@@H]1/C=C\C(=O)[C@@H](O)[C@@H](O)C/C=C/c2cc(N3CCOC3=O)cc(O)c2C(=O)O[C@H]1C`, the IC50 in test [1] was 187 nM. Further, in test [2], the inhibition entry is “Active”.

`C[C@@H]1/C=C\C(=O)[C@@H](O)[C@@H](O)C/C=C/c2cc(NCCN3CCOCC3)cc(O)c2C(=O)O[C@H]1C` came in with an IC50 in test [1] of 91 to 101 nM. Moreover, the inhibition result in test [2] is “Active”.

In test [1], `C[C@@H]1/C=C\C(=O)[C@@H](O)[C@@H](O)C/C=C/c2cc(NCC(N)=O)cc(O)c2C(=O)O[C@H]1C` displayed an IC50 of 99 to 310 nM. Also, in test [2], the inhibition result is “Active”.

In test [1], `C[C@@H]1/C=C\C(=O)[C@@H](O)[C@@H](O)C/C=C/c2cc(NCC(=O)O)cc(O)c2C(=O)O[C@H]1C` came in with an IC50 of 366 nM. In addition, the inhibition result in test [2] is “Active”.

In turn, `COCCNc1cc(O)c2c(c1)/C=C/C[C@H](O)[C@H](O)C(=O)/C=C\[C@@H](C)[C@H](C)OC2=O` came in with an IC50 in test [1] of 172 nM. For the same molecule, the inhibition entry in test [2] was “Active”.

As to `C[C@@H]1/C=C\C(=O)[C@@H](O)[C@@H](O)C/C=C/c2cc(NCCNCCO)cc(O)c2C(=O)O[C@H]1C`, 846 nM corresponded to half-maximal inhibition in test [1] (IC50). For the same molecule, in test [2], the inhibition entry was “Active”.

Take `C[C@@H]1/C=C\C(=O)[C@@H](O)[C@@H](O)C/C=C/c2cc(NCC(=O)N(C)C)cc(O)c2C(=O)O[C@H]1C`: in test [1], half-maximal inhibition (IC50) was put at 318 nM. The inhibition result in test [2] is “Active”.

In the case of `CNc1cc(O)c2c(c1)/C=C/C[C@H](O)[C@@H](O)C(=O)/C=C/[C@@H](C)[C@H](C)OC2=O`, in test [2], the inhibition entry is “Active”.

Molecule `CCNc1cc(O)c2c(c1)C#CC[C@H](O)[C@H](O)C(=O)/C=C\[C@@H](C)[C@H](C)OC2=O` came in with an IC50 in test [1] of 182 nM. In test [2], the inhibition entry is “Active”.

Regarding `COCCOCCOCCNCNc1cc(O)c2c(c1)/C=C/C[C@H](O)[C@H](O)C(=O)/C=C\[C@@H](C)[C@H](C)OC2=O`, the IC50 in test [1] is 756 nM. Also, the inhibition result in test [2] is “Active”.

Turning to `C[C@@H]1/C=C\C(=O)[C@@H](O)[C@@H](O)C/C=C/c2cc(NOCC(=O)O)cc(O)c2C(=O)O[C@H]1C`, the IC50 in test [1] is above 330 nM. In test [2], the inhibition entry is “Active”.

`C[C@@H]1/C=C\C(=O)[C@@H](O)[C@@H](O)C/C=C/c2cc(NCCOP(=O)(O)O)cc(O)c2C(=O)O[C@H]1C` registered an IC50 in test [1] above 330 nM. Further, in test [2], the inhibition entry is “Active”.

Molecule `CNC(=O)CNc1cc(O)c2c(c1)/C=C/C[C@H](O)[C@H](O)C(=O)/C=C\[C@@H](C)[C@H](C)OC2=O` came in with an IC50 in test [1] of 657 nM. Also, the inhibition entry in test [2] is “Active”.

On to `CCNc1cc(O)c2c(c1)/C=C/C[C@H](OC(=O)C(F)(F)F)[C@@H](O)C(=O)/C=C\[C@@H](C)[C@H](C)OC2=O`, for which half-maximal inhibition in test [1] (IC50) was put at 79 nM. For the same molecule, the inhibition result in test [2] is “Active”.

In the case of `CNc1cc(O)c2c(c1)/C=C/C[C@H](O)[C@@H](O)C(=O)/C=C\[C@@H](C)[C@H](C)OC2=O`, the inhibition result in test [2] is “Active”.

Molecule `C[C@@H]1/C=C\C(=O)[C@@H](O)[C@@H](O)C/C=C/c2cc(NOC[C@H](O)CO)cc(O)c2C(=O)O[C@H]1C` had a 50% inhibitory concentration (IC50) in test [1] of 187 nM. The inhibition entry in test [2] was “Active”.

Take `C[C@@H]1/C=C\C(=O)[C@@H](O)[C@@H](O)C/C=C/c2cc(NCCn3ccnc3)cc(O)c2C(=O)O[C@H]1C`: the IC50 in test [1] was found to be 120 nM. For the same molecule, in test [2], the inhibition entry is “Active”.

Regarding `C[C@@H]1/C=C\C(=O)[C@@H](O)[C@@H](O)C/C=C/c2cc(NCC3CCNCC3)cc(O)c2C(=O)O[C@H]1C`, the IC50 in test [1] worked out at 356 nM. The inhibition result in test [2] is “Active”.

Consider `C[C@@H]1/C=C\C(=O)[C@@H](O)[C@@H](O)C/C=C/c2cc(NCCN3CCCC3)cc(O)c2C(=O)O[C@H]1C`, for which, in test [1], the IC50 lay in the range of 356 to 640 nM. For the same molecule, the inhibition result in test [2] is “Active”.

In test [1], `C[C@@H]1/C=C\C(=O)[C@@H](O)[C@@H](O)C/C=C/c2cc(NCCO)cc(O)c2C(=O)O[C@H]1C` displayed an IC50 of 91 to 198 nM. Moreover, in test [2], the inhibition entry is “Active”.

`C[C@@H]1/C=C\C(=O)[C@@H](O)[C@@H](O)C/C=C/c2cc(CCCn3ccnc3)cc(O)c2C(=O)O[C@H]1C` yielded a 50% inhibitory concentration (IC50) in test [1] of 9.5 to 37 nM. The inhibition entry in test [2] is “Active”.

In test [1], `CCNc1cc(O)c2c(c1)/C=C/C[C@@H]1OC(=O)O[C@@H]1C(=O)/C=C\[C@@H](C)[C@H](C)OC2=O` gave an IC50 of 145 nM. The inhibition result in test [2] is “Active”.

The molecule `C[C@@H]1/C=C\C(=O)[C@@H](O)[C@@H](O)C/C=C/c2cc(NC3CC3)cc(O)c2C(=O)O[C@H]1C` returned an IC50 in test [1] of 657 nM. In test [2], the inhibition entry was “Active”.

Molecule `C[C@@H]1/C=C\C(=O)[C@@H](O)[C@@H](O)C/C=C/c2cc(NCC(O)CO)cc(O)c2C(=O)O[C@H]1C` (some centres undefined) yielded an IC50 in test [1] of 56 to 101 nM. Also, in test [2], the inhibition entry was “Active”.

Regarding `C[C@@H]1/C=C\C(=O)[C@@H](O)[C@@H](O)C/C=C/c2cc(N(CCNCC(O)CO)C(=O)OC(C)(C)C)cc(O)c2C(=O)O[C@H]1C` (some centres undefined), the inhibition entry in test [2] is “Active”.

Usually IC50 stands for the concentration that gives 50% inhibition. A higher IC50 goes with weaker potency in that assay.
